ChEMBL document CHEMBL5360572, “Advances of bioorthogonal coupling reactions in drug development” (Eur J Med Chem, 2023)

Tests used:
[1] = molecular target: T1, M-phase inducer phosphatase 3 (Homo sapiens, UniProt P30307); experiment: Inhibition of full-length recombinant human CDC25C using OMFP as substrate incubated for 5 to 8 mins by fluorescence based assay
T1 sequence (P30307 whole entry): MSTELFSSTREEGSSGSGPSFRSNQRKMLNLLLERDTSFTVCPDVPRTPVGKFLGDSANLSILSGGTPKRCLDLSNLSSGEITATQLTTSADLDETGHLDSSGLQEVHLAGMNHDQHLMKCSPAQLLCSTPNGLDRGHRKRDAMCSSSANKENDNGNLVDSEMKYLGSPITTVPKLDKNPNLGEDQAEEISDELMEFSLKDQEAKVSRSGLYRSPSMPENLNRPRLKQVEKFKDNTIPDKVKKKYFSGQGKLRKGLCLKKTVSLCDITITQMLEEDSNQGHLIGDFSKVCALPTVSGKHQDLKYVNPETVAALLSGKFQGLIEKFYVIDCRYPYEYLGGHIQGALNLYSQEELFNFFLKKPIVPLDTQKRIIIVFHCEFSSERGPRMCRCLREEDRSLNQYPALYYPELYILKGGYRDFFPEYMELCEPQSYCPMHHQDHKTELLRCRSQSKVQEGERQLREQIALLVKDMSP

[2] = molecular target: T2, M-phase inducer phosphatase 2 (Homo sapiens, UniProt P30305); experiment: Inhibition of full-length recombinant human CDC25B using OMFP as substrate incubated for 5 to 8 mins by fluorescence based assay
T2 sequence (P30305 whole entry): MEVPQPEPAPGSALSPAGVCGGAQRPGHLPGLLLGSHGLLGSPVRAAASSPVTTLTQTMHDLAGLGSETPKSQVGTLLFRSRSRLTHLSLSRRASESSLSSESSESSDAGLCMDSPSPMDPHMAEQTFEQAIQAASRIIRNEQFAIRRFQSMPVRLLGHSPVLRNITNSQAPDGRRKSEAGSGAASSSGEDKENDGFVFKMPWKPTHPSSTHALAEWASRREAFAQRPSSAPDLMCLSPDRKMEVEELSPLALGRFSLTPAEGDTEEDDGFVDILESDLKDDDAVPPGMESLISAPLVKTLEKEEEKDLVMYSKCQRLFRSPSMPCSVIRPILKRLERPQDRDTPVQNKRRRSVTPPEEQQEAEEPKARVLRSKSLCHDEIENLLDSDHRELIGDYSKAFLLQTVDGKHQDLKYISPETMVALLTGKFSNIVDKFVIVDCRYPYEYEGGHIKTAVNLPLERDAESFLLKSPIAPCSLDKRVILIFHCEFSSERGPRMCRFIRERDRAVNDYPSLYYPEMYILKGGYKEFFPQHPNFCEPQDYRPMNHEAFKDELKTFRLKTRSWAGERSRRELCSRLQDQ

[3] = molecular target: T3, M-phase inducer phosphatase 1 (Homo sapiens, UniProt P30304); experiment: Inhibition of full-length recombinant human CDC25A using OMFP as substrate incubated for 5 to 8 mins by fluorescence based assay
T3 sequence (P30304 whole entry): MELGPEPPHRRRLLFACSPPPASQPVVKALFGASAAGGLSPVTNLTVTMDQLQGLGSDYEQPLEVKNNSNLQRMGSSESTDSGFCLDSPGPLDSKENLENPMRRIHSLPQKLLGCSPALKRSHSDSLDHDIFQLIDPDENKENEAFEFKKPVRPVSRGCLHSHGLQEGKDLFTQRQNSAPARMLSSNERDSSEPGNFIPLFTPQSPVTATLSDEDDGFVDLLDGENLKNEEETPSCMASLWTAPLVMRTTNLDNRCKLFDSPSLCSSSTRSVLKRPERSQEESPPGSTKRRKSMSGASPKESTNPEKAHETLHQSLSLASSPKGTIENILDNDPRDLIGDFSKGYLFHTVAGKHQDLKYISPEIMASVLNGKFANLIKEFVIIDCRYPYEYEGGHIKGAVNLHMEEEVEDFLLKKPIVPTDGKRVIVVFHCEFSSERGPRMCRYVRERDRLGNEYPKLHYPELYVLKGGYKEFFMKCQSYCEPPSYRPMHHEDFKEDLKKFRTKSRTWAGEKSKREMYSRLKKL

- IC50 [1]: 60 nM
- IC50 [2]: 190 nM
- IC50 [3]: 150 nM
Structure (SMILES): CC(NC1=C(Cl)C(=O)c2cccnc2C1=O)c1cn(-c2ccc(CO)cc2)nn1 (stereo not drawn)
